# Test system: 454973-116-R2-J3-PDC spheroids, viability, % test/control
# Test: Anticancer human tumor 454973-116-R2-J3-PDC patient-derived pancreatic carcinoma cell line growth inhibition [GQUAD]
# Settings: spheroids with HUVEC and MSC; for IC50: curve of first compound; for viability, T/C: stronger effect = lower value
# In short: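 Tumor cells were grown as complex spheroids with HUVEC endothelial cells and mesenchymal stem cells as stroma. G-quadruplex stabilizers were combined with targeted agents over half-log dilutions from near the clinical Cmax, or from 10 microM.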
# [1] = second compound 0.0316 µM, first compound 0.0316 µM
# [2] = second compound 0.0316 µM, first compound 0.1 µM
# [3] = second compound 0.0316 µM, first compound 0.316 µM
# [4] = second compound 0.0316 µM, first compound 1 µM
# [5] = second compound 0.0316 µM, first compound 3.16 µM
# [6] = second compound 0.0316 µM, first compound 10 µM
# [7] = second compound 0.1 µM, first compound 0.0316 µM
# [8] = second compound 0.1 µM, first compound 0.1 µM
# [9] = second compound 0.1 µM, first compound 0.316 µM
# [10] = second compound 0.1 µM, first compound 1 µM
# [11] = second compound 0.1 µM, first compound 3.16 µM
# [12] = second compound 0.1 µM, first compound 10 µM
# [13] = second compound 0.316 µM, first compound 0.0316 µM
# [14] = second compound 0.316 µM, first compound 0.1 µM
# [15] = second compound 0.316 µM, first compound 0.316 µM
# [16] = second compound 0.316 µM, first compound 1 µM
# [17] = second compound 0.316 µM, first compound 3.16 µM
# [18] = second compound 0.316 µM, first compound 10 µM
# [19] = second compound 1 µM, first compound 0.0316 µM
# [20] = second compound 1 µM, first compound 0.1 µM
# [21] = second compound 1 µM, first compound 0.316 µM
# [22] = second compound 1 µM, first compound 1 µM
# [23] = second compound 1 µM, first compound 3.16 µM
# [24] = second compound 1 µM, first compound 10 µM
# [25] = second compound 3.16 µM, first compound 0.0316 µM
# [26] = second compound 3.16 µM, first compound 0.1 µM
# [27] = second compound 3.16 µM, first compound 0.316 µM
# [28] = second compound 3.16 µM, first compound 1 µM
# [29] = second compound 3.16 µM, first compound 3.16 µM
# [30] = second compound 3.16 µM, first compound 10 µM
# [31] = second compound 10 µM, first compound 0.0316 µM
# [32] = second compound 10 µM, first compound 0.1 µM
# [33] = second compound 10 µM, first compound 0.316 µM
# [34] = second compound 10 µM, first compound 1 µM
# [35] = second compound 10 µM, first compound 3.16 µM
# [36] = second compound 10 µM, first compound 10 µM
# 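Also: spheroids exposed to compounds for seven days.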
# 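For viability, T/C in this document: 100% = DMSO vehicle control viability.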
structure (smiles),measurement,setting,value
CC(C)(O)C1CCC(Nc2ccc3ncc(-c4cccc(C(F)(F)F)c4)n3n2)CC1 (stereo unspecified) + Cc1cnc(CNC(=O)c2c(=O)c3ccc(N4CCCN(C)CC4)nc3n3c2sc2ccccc23)cn1,IC50,second compound 0.0316 µM,1.73 µM
same,IC50,second compound 0.1 µM,1.55 µM
same,IC50,second compound 0.316 µM,1.63 µM
same,IC50,second compound 1 µM,1.74 µM
same,IC50,second compound 3.16 µM,1.36 µM
same,IC50,second compound 10 µM,< 0.0316 µM
same,"viability, T/C",[1],108%
same,"viability, T/C",[2],89.3%
same,"viability, T/C",[3],96.5%
same,"viability, T/C",[4],75%
same,"viability, T/C",[5],21.5%
same,"viability, T/C",[6],23.8%
same,"viability, T/C",[7],83.3%
same,"viability, T/C",[8],83.8%
same,"viability, T/C",[9],85.4%
same,"viability, T/C",[10],65.4%
same,"viability, T/C",[11],22%
same,"viability, T/C",[12],27.6%
same,"viability, T/C",[13],82.8%
same,"viability, T/C",[14],69.2%
same,"viability, T/C",[15],76.2%
same,"viability, T/C",[16],64.3%
same,"viability, T/C",[17],28.9%
same,"viability, T/C",[18],32.1%
same,"viability, T/C",[19],76.4%
same,"viability, T/C",[20],65.6%
same,"viability, T/C",[21],65.1%
same,"viability, T/C",[22],66.5%
same,"viability, T/C",[23],31.9%
same,"viability, T/C",[24],32.5%
same,"viability, T/C",[25],66.9%
same,"viability, T/C",[26],65.2%
same,"viability, T/C",[27],63.9%
same,"viability, T/C",[28],59.8%
same,"viability, T/C",[29],21.3%
same,"viability, T/C",[30],25.9%
same,"viability, T/C",[31],0.3%
same,"viability, T/C",[32],17.6%
same,"viability, T/C",[33],49%
same,"viability, T/C",[34],0.58%
same,"viability, T/C",[35],0.43%
same,"viability, T/C",[36],0.23%
Cc1[nH]c2ccccc2c1CCNCc1ccc(/C=C/C(=O)NO)cc1 + Cc1[nH]c2ccc(F)cc2c1-c1nc2c3cccnc3c3ncccc3c2[nH]1,IC50,second compound 0.0316 µM,0.0743 µM
same,IC50,second compound 0.1 µM,0.0758 µM
same,IC50,second compound 0.316 µM,0.0775 µM
same,IC50,second compound 1 µM,0.0684 µM
same,IC50,second compound 3.16 µM,0.0728 µM
same,IC50,second compound 10 µM,0.0817 µM
same,"viability, T/C","second compound 0.0316 µM, first compound 0.000999 µM",107%
same,"viability, T/C","second compound 0.0316 µM, first compound 0.00316 µM",104%
same,"viability, T/C","second compound 0.0316 µM, first compound 0.00999 µM",104%
same,"viability, T/C",[1],85.7%
same,"viability, T/C","second compound 0.0316 µM, first compound 0.0999 µM",37.6%
same,"viability, T/C",[3],6.79%
same,"viability, T/C","second compound 0.1 µM, first compound 0.000999 µM",104%
same,"viability, T/C","second compound 0.1 µM, first compound 0.00316 µM",109%
same,"viability, T/C","second compound 0.1 µM, first compound 0.00999 µM",108%
same,"viability, T/C",[7],94.5%
same,"viability, T/C","second compound 0.1 µM, first compound 0.0999 µM",36%
same,"viability, T/C",[9],7.21%
same,"viability, T/C","second compound 0.316 µM, first compound 0.000999 µM",110%
same,"viability, T/C","second compound 0.316 µM, first compound 0.00316 µM",110%
same,"viability, T/C","second compound 0.316 µM, first compound 0.00999 µM",90.4%
same,"viability, T/C",[13],88.8%
same,"viability, T/C","second compound 0.316 µM, first compound 0.0999 µM",38.3%
same,"viability, T/C",[15],6.45%
same,"viability, T/C","second compound 1 µM, first compound 0.000999 µM",106%
same,"viability, T/C","second compound 1 µM, first compound 0.00316 µM",97.5%
same,"viability, T/C","second compound 1 µM, first compound 0.00999 µM",99.1%
same,"viability, T/C",[19],79.8%
same,"viability, T/C","second compound 1 µM, first compound 0.0999 µM",35.3%
same,"viability, T/C",[21],9.42%
same,"viability, T/C","second compound 3.16 µM, first compound 0.000999 µM",99.7%
same,"viability, T/C","second compound 3.16 µM, first compound 0.00316 µM",94.3%
same,"viability, T/C","second compound 3.16 µM, first compound 0.00999 µM",85.3%
same,"viability, T/C",[25],86.6%
same,"viability, T/C","second compound 3.16 µM, first compound 0.0999 µM",36.2%
same,"viability, T/C",[27],9.17%
same,"viability, T/C","second compound 10 µM, first compound 0.000999 µM",96.2%
same,"viability, T/C","second compound 10 µM, first compound 0.00316 µM",87.9%
same,"viability, T/C","second compound 10 µM, first compound 0.00999 µM",92.3%
same,"viability, T/C",[31],75.5%
same,"viability, T/C","second compound 10 µM, first compound 0.0999 µM",44.6%
same,"viability, T/C",[33],11%
Cc1cccc(N(C)C(=O)C2C(O)CCN2c2nc(C)cc(C(F)(F)F)c2C#N)c1 (stereo unspecified) + Cc1cnc(CNC(=O)c2c(=O)c3ccc(N4CCCN(C)CC4)nc3n3c2sc2ccccc23)cn1,IC50,second compound 0.0316 µM,> 10 µM
same,IC50,second compound 0.1 µM,> 10 µM
same,IC50,second compound 0.316 µM,> 10 µM
same,IC50,second compound 1 µM,> 10 µM
same,IC50,second compound 3.16 µM,> 10 µM
same,IC50,second compound 10 µM,< 0.0316 µM
same,"viability, T/C",[1],103%
same,"viability, T/C",[2],96.8%
same,"viability, T/C",[3],107%
same,"viability, T/C",[4],87.5%
same,"viability, T/C",[5],108%
same,"viability, T/C",[6],93.4%
same,"viability, T/C",[7],88.2%
same,"viability, T/C",[8],74.3%
same,"viability, T/C",[9],71.9%
same,"viability, T/C",[10],68.7%
same,"viability, T/C",[11],70.2%
same,"viability, T/C",[12],69.9%
same,"viability, T/C",[13],74.5%
same,"viability, T/C",[14],71.5%
same,"viability, T/C",[15],71.3%
same,"viability, T/C",[16],67.6%
same,"viability, T/C",[17],70.8%
same,"viability, T/C",[18],66.1%
same,"viability, T/C",[19],71.9%
same,"viability, T/C",[20],65.5%
same,"viability, T/C",[21],61.2%
same,"viability, T/C",[22],65.2%
same,"viability, T/C",[23],65%
same,"viability, T/C",[24],70%
same,"viability, T/C",[25],64.2%
same,"viability, T/C",[26],59.4%
same,"viability, T/C",[27],62.1%
same,"viability, T/C",[28],65.3%
same,"viability, T/C",[29],58.2%
same,"viability, T/C",[30],68.4%
same,"viability, T/C",[31],0.75%
same,"viability, T/C",[32],16.9%
same,"viability, T/C",[33],51.1%
same,"viability, T/C",[34],34.8%
same,"viability, T/C",[35],0.59%
same,"viability, T/C",[36],0.31%

# Reference: PubChem BioAssay AID2060508 (Molecular Pharmacology Branch, DTP, NCI, 2025)
